This passage reports inhibition results from PubChem BioAssay AID504645 (Southern Research Specialized Biocontainment Screening …, 2011).

SMILES strings stand for the structures. Activity calls are given as the source filed them. No rule for the calls is given here.

This experiment in a line: M tuberculosis H37Rv growth inhibition in absence of glycerol, confirmatory, IC90 (AID 504645).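 Also: bacteria grown one week before the viability dye was added.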 As to conditions: M. tuberculosis H37Rv growth inhibition, glycerol-free medium; at 25 µM (top of the series).
In general, inhibition refers to the relative decrease from the control value, in per cent. For `CCSc1nc2ccccc2c(=O)[nH]1`, the inhibition was 4.69% (inactive).
Take `CC(NC(=O)CSc1nc2ccccc2c(=O)[nH]1)c1ccccc1` (configuration not stated): the inhibition was 1.63% (inactive).
Next, `CCOC(=O)C(CC)Sc1ncnc2c1nnn2-c1ccc(F)cc1` (configuration not stated): 14.7% (inactive); `CN(C(=O)CSc1nc2ccccc2c(=O)[nH]1)C1CCCCC1`: 3.96% (inactive).
Turning to `Cc1cc(C)cc(NC(=O)CSc2nc3c(c(=O)[nH]2)CN(Cc2ccc(F)cc2)CC3)c1`, the inhibition was -0.57% (inactive).
Next, `O=C(CSc1ccccn1)NC1CCCCC1`: 5.28% (inactive).
On to `C=CCn1c(SCC(=O)Nc2cccc3ccccc23)nc(O)c(CC)c1=O`, for which the inhibition is 6.9% (inactive).
Turning to `Nc1cc(=O)[nH]c(SCC(=O)Nc2ccccc2-c2ccccc2)n1`, the inhibition was 3.67% (inactive).
The value for `O=C(NCCc1ccc(Cl)cc1)C1CCC(CNc2c(N3CCCCC3)c(=O)c2=O)CC1` (configuration not stated) was 14.2% (inactive); that for `Cc1[nH]c(=S)[nH]c(=O)c1C` was -1.69% (inactive).
`CCSc1nc(C)c(C)c(=O)[nH]1`: the inhibition is 3.06% (inactive).
Take `CCc1c(O)nc(SCC(=O)Nc2ccc(OC)cc2)n(C2CCCCC2)c1=O`: the inhibition was 2.43% (inactive).
The value for `COc1ccc(-c2noc(CSc3nc(N)c(-c4ccccc4)c(=O)[nH]3)n2)cc1OC` was 3.69% (inactive).
The value for `CCOc1ccc(NC(=O)c2ccc(CNc3c(N4CCCC4)c(=O)c3=O)cc2)cc1` was 7.47% (inactive); that for `O=c1[nH]c(=S)[nH]c2ccccc12` was -4.53% (inactive); that for `Cc1[nH]c2ccccc2c1C(=O)COC(=O)c1ccc([N+](=O)[O-])s1` was 8.85% (inactive).
Next, `CCOC(=O)N1CCC(Nc2c(N3CCN(c4cccc(C(F)(F)F)c4)CC3)c(=O)c2=O)CC1`: 3.78% (inactive); `COC(=O)C(Nc1nc(SCC(=O)NC2CCCCC2)nc2ccccc12)c1ccccc1` (configuration not stated): -2.65% (inactive).
`CCCc1cc(=O)[nH]c(SCC(=O)Nc2cc3c(cc2C(C)=O)OCO3)n1`: the inhibition was 9.03% (inactive).
The value for `Cc1nc(SCC(=O)N(C)c2ccccc2)[nH]c(=O)c1C` was -1.39% (inactive); that for `COc1ccc(NC(=O)CSc2nc(NS(=O)(=O)c3ccc(C)cc3)cc(=O)[nH]2)cc1` was 1.34% (inactive).
Take `O=C(CSc1ncccn1)NC1CCCCC1`: the inhibition was 2.15% (inactive).
On to `Oc1ccccc1/C=N/Nc1ccnc(SCc2ccccc2)n1`, for which the inhibition is 2.52% (inactive).
The value for `Cc1nc(SCc2ccccc2Cl)[nH]c(=O)c1C` was -3.47% (inactive); that for `CCOC(=O)CSc1nc(C)c(C)c(=O)[nH]1` was -1.83% (inactive); that for `Cc1ccc(NC(=O)CSc2nc(N)cc(=O)[nH]2)cc1Cl` was 10.7% (inactive).
Next, `Nc1cc(=O)[nH]c(SCC(=O)Nc2ccc(Oc3ccccc3)cc2)n1`: 7.34% (inactive); `Cc1cc(=O)[nH]c(SCC(=O)Nc2ncc(S(=O)(=O)c3ccc([N+](=O)[O-])cc3)s2)n1`: 2.85% (inactive).
The value for `CC1CCN(C(=O)CSc2nc3ccccc3c(=O)[nH]2)CC1` was -0.18% (inactive); that for `CCOc1ccc2nc(NC(=O)C(CC)Sc3nc(C)cc(=O)[nH]3)sc2c1` (configuration not stated) was 4.79% (inactive); that for `CCOc1ccc(NC(=O)CSc2nc(N)c(-c3ccccc3)c(=O)[nH]2)cc1` was 2.14% (inactive).
For the molecule `O=C(C1CCC(CNc2c(N3CCCCC3)c(=O)c2=O)CC1)N1CCCCC1` (configuration not stated), the inhibition was 1.49% (inactive).
Turning to `CCOC(=O)N1CCC(Nc2c(Nc3cccc(CC)c3)c(=O)c2=O)CC1`, the inhibition is 11.5% (inactive).
For `CCC(Sc1nc(=O)cc(N)n1-c1ccccc1)C(=O)Nc1cc(C)on1` (configuration not stated), the inhibition is 3.38% (inactive).
The value for `CCc1cc(=O)[nH]c(SCC(=O)Nc2ccc3c(c2)OCCO3)n1` was 5.24% (inactive).
As to `Cc1ccc(NC(=O)CSc2nc(N)c(-c3ccccc3)c(=O)[nH]2)cc1Cl`, the inhibition was 1.17% (inactive).
Next, `O=C(NCC1COc2ccccc2O1)C1CCC(CNc2c(N3CCCCC3)c(=O)c2=O)CC1` (configuration not stated): 4.5% (inactive).
